Source: US5541193A, “Heterocycle-containing macrocyclic immunomodulators” (Abbott Laboratories, priority 1995, dated 1996)

Tested on: human mixed lymphocyte reaction (MLR)
Test: human mixed lymphocyte reaction (MLR) assay, immunosuppressant activity
Type: cell-based
Details: Table 1
Protocol: […] Assay of Biological Activity
The immunosuppressant activity of the compounds of the present invention was determined using the human mixed lymphocyte reaction (MLR) assay described by Kino, T. et al. in Transplantation Proceedings, XIX(5):36-39,Suppl. 6 (1987).

| IC50 [nM] | Structure (SMILES) |
| --- | --- |
| 2.48 | CC[C@@H]1/C=C(\C)C[C@H](C)C[C@H](OC)[C@H]2O[C@@](O)(C(=O)C(=O)N3CCCC[C@H]3C(=O)O[C@H](/C(C)=C/[C@@H]3CC[C@H](n4ccnn4)[C@H](OC)C3)[C@H](C)[C@@H](O)CC1=O)[C@H](C)C[C@@H]2OC [Example 5] |
| 0.44 | CC[C@@H]1/C=C(\C)C[C@H](C)C[C@H](OC)[C@H]2O[C@@](O)(C(=O)C(=O)N3CCCC[C@H]3C(=O)O[C@H](/C(C)=C/[C@@H]3CCC(OC)C(n4ccnn4)C3)[C@H](C)[C@@H](O)CC1=O)[C@H](C)C[C@@H]2OC (some centres unmarked) [Example 6] |
| 0.21 | CC[C@@H]1/C=C(\C)C[C@H](C)C[C@H](OC)[C@H]2O[C@@](O)(C(=O)C(=O)N3CCCC[C@H]3C(=O)O[C@H](/C(C)=C/[C@@H]3CC[C@H](n4nnc5ccccc54)[C@H](OC)C3)[C@H](C)[C@@H](O)CC1=O)[C@H](C)C[C@@H]2OC [Example 7] |
| 1.76 | CC[C@@H]1/C=C(\C)C[C@H](C)C[C@H](OC)[C@H]2O[C@@](O)(C(=O)C(=O)N3CCCC[C@H]3C(=O)O[C@H](/C(C)=C/[C@@H]3CCC(OC)C(n4nnc5ccccc54)C3)[C@H](C)[C@@H](O)CC1=O)[C@H](C)C[C@@H]2OC (some centres unmarked) [Example 8] |
| 0.23 | CC[C@@H]1/C=C(\C)C[C@H](C)C[C@H](OC)[C@H]2O[C@@](O)(C(=O)C(=O)N3CCCC[C@H]3C(=O)O[C@H](/C(C)=C/[C@@H]3CC[C@H](n4nnc5cc([N+](=O)[O-])ccc54)[C@H](OC)C3)[C@H](C)[C@@H](O)CC1=O)[C@H](C)C[C@@H]2OC [Example 9] |
| 0.22 | CC[C@@H]1/C=C(\C)C[C@H](C)C[C@H](OC)[C@H]2O[C@@](O)(C(=O)C(=O)N3CCCC[C@H]3C(=O)O[C@H](/C(C)=C/[C@@H]3CC[C@H](n4nnc5ccc([N+](=O)[O-])cc54)[C@H](OC)C3)[C@H](C)[C@@H](O)CC1=O)[C@H](C)C[C@@H]2OC [Example 10] |
| 1.56 | CC[C@@H]1/C=C(\C)C[C@H](C)C[C@H](OC)[C@H]2O[C@@](O)(C(=O)C(=O)N3CCCC[C@H]3C(=O)O[C@H](/C(C)=C/[C@@H]3CCC(OC)C(n4nnc5cc([N+](=O)[O-])ccc54)C3)[C@H](C)[C@@H](O)CC1=O)[C@H](C)C[C@@H]2OC (some centres unmarked) [Example 11] |
| 0.94 | CC[C@@H]1/C=C(\C)C[C@H](C)C[C@H](OC)[C@H]2O[C@@](O)(C(=O)C(=O)N3CCCC[C@H]3C(=O)O[C@H](/C(C)=C/[C@@H]3CCC(OC)C(n4nnc5ccc([N+](=O)[O-])cc54)C3)[C@H](C)[C@@H](O)CC1=O)[C@H](C)C[C@@H]2OC (some centres unmarked) [Example 12] |
| 0.62 | CC[C@@H]1/C=C(\C)C[C@H](C)C[C@H](OC)[C@H]2O[C@@](O)(C(=O)C(=O)N3CCCC[C@H]3C(=O)O[C@H](/C(C)=C/[C@@H]3CC[C@H](n4cncn4)[C@H](OC)C3)[C@H](C)[C@@H](O)CC1=O)[C@H](C)C[C@@H]2OC [Example 13] |
| 0.04 | CC[C@@H]1/C=C(\C)C[C@H](C)C[C@H](OC)[C@H]2O[C@@](O)(C(=O)C(=O)N3CCCC[C@H]3C(=O)O[C@H](/C(C)=C/[C@@H]3CC[C@H](n4cnc([N+](=O)[O-])n4)[C@H](OC)C3)[C@H](C)[C@@H](O)CC1=O)[C@H](C)C[C@@H]2OC [Example 15] |
| 1 | CC[C@@H]1/C=C(\C)C[C@H](C)C[C@H](OC)[C@H]2O[C@@](O)(C(=O)C(=O)N3CCCC[C@H]3C(=O)O[C@H](/C(C)=C/[C@@H]3CCC(OC)C(n4cnc([N+](=O)[O-])n4)C3)[C@H](C)[C@@H](O)CC1=O)[C@H](C)C[C@@H]2OC (some centres unmarked) [Example 16] |
